“Also recorded” adds a separate entry of the source. Like-named read-outs stand apart in the source and are kept apart here. Positions of bridges follow the written chain, without caps; N, C: chain ends. Non-standard residues stand in square brackets, D forms with d. Residues, ends and D or L forms follow the SMILES beside them. Triazole bridges read from a SMILES are 1,4-linked. Lys(N3) = [N-]=[N+]=NCCCC[C@H](N)C(=O)O; Pra = C#CC[C@H](N)C(=O)O
Key:
[1] = Circular dichroism in liposomes mimicking eukaryotic membranes; assay type: physicochemical; settings: SUVs DOPC:Chol 70:30, peptide 80 μM; for helical content: CD, phosphate buffer 5 mM pH 7.4, 25 °C, from [θ]222
Protocol: (§1) The circular dichroism spectra of the selected peptides (3, 7, 15 and 16) were recorded in small unilamellar vesicles (SUVs) composed of PE/PC/PI/Ergosterol (5:4:1:2, w/w/w/w, final lipid concentration = 0.01 mM) and DOPC/Chol (70:30, ratio in moles, final lipid concentration = 0.1 mM), between 190 and 260 nm on a JASCO J-710 CD spectropolarimeter at 25 °C using quartz cells with a 0.1-cm path length. The SUVs were prepared as reported in the following protocol. Once the lipid films were prepared as described above, they were hydrated with a phosphate buffer (5 mM, pH 7.4) (DOPC:Chol) or water (PE/PC/PI/Ergosterol) for 1 h and sonicated for 40 min. The peptides were dissolved in water to form a sample with a concentration of 80 μM in SUVs made of DOPC/Chol, while a peptide concentration of 10 μM was used in SUVs made of PE/PC/PI/Ergosterol. We accumulated the data three times, and all spectral data were subtracted from the background. Each spectrum converted the signal to the mean molar ellipticity, and we calculated the ratio of the ellipticities at 222 and 208 nm to discriminate between the monomeric and oligomeric states of the helices. The helix content was calculated as follows: [θ]222/(−40,000[1 − 2.5/n)], where [θ]222 is the ellipticity measurement at 222 nm and n is the number of amino acid residues.

[2] = test system: C. albicans ATCC 90028 biofilms; assay: Eradication of preformed biofilm, bright-field microscopy; assay type: cell-based; settings: peptide 12.5 μM
Protocol: Biofilm inhibition and eradication assays were performed as previously described in [37]. […] After the incubation period, non-adherent cells were detached by washing each sample three times in sterile PBS. Then, the samples were fixed, and the biofilms were stained with a 0.1% solution of crystal violet. To test the effect against the established biofilm, fresh growth medium containing peptides at the same concentrations was added in the preformed 24-h old biofilms and incubated for another 24 h. The total biomass was quantified by a crystal violet assay for the inhibition. The vital biomass was quantified by XTT for test eradication by using the tetrazolium 2,3-bis (2-methoxy-4-nitro-5 sulfophenyl)-5-[(phenylamine) carbonyl]-2H-hydroxide reduction assay (XTT) (Sigma-Aldrich, St. Luis, MO, USA) according to the manufacturer’s instructions. The absorbance was measured spectrophotometrically at 492 nm. The percentages of inhibition or eradication were calculated as follows: % biofilm reduction = Abs control − Abs sample/Abs control × 100.
Optical microscopy images were acquired by using a Leica AF6000LX-DM6M-Z microscope (Leica Microsystems, Mannheim, Germany) controlled by LAS-X (Leica Application Suite; rel. 3.0.13) software and equipped with a Leica Camera DFC7000T. Images were acquired by focusing on the Petri dish surface with a 50× objective in a bright field. […]

C. auris DSM 21092 = assay type: cell-based; settings: DSM 21092, 24 h
Protocol: (§2) C. albicans ATCC 90028, C. auris DSM 21092, C. glabrata DSM 11226, C. tropicalis DSM11951 and C. parapsilosis DSM 4874 grown on YPD Agar (1% w/v yeast extract, 2% w/v peptone, 2% w/v glucose, 1.5% Agar) were cultured in Tryptone soya broth supplemented with 0.1% glucose for 16–18 h at 37 °C, washed twice using sterile phosphate-buffered saline (PBS) and standardized to […] as required for the experiments. RPMI1640 medium (Thermo Fisher Scientific, Waltham, MA, USA) buffered to a pH of 7.0 with 0.165 M MOPS was used for growing the biofilms of all Candida species.
(§3) The antifungal activity of peptides against all five Candida species was determined according to CLSI-M27-A3 [33], as reported previously. Briefly, the compounds were tested at concentrations ranging from […] to 50 μM, and the organism suspensions were adjusted to an inoculum of 10^6 cell/mL at OD 590 nm in RPMI 1640, added to the 96-well plate and incubated at 37 °C for 24 h. The minimum inhibitory concentration (MIC) values were determined as the lowest concentration inhibiting fungal growth at 590 nm using a microplate reader (Synergy™ H4; BioTek Instruments, Inc., Winooski, VT, USA). […] The MFC was the lowest concentration that yielded no colony growth on the agar. The MFC/MIC ratio was calculated to determine whether the substance had fungistatic (MFC/MIC ≥ 4) or fungicidal (MFC/MIC < 4) activity.

C. tropicalis DSM 11951 = assay type: cell-based
Protocol: as §2, §3

C. glabrata DSM 11226 = assay type: cell-based
Protocol: as §2, §3

G. mellonella larvae = settings: in vivo
Protocol: Twenty larvae with an average weight of 180–200 mg were used in each group in all assays with 2 control groups; one group was inoculated with PBS, while the other group received no injection as a control to evaluate general viability. A volume of 10 µL of each peptide at different concentrations (12.5, 25.0, and 50.0 µM) was inoculated in each group. All larvae were incubated at 37 °C and monitored daily for survival for 4 days in 3 independent experiments.

C. albicans ATCC 90028 = assay type: cell-based; settings: ATCC 90028, 24 h
Protocol: as §2, §3

[3] = Circular dichroism in liposomes mimicking fungal membranes; assay type: physicochemical; settings: SUVs PE/PC/PI/ergosterol
Protocol: as §1, with “The peptides were dissolved in water to form a sample with a concentration of 80 μM in SUVs made of DOPC/Chol, while a peptide concentration of 10 μM was used in SUVs made of PE/PC/PI/Ergosterol.” left out

[4] = CLSI-M27-A3, RPMI 1640, 10^6 cell/mL, 37 °C, 24 h, read at 590 nm

| Compound | helical content [1] | eradication effect on preformed C. albicans biofilms by optical microscopy [2] | MFC, C. auris DSM 21092 (C. auris DSM 21092) [µM] | MIC, C. auris DSM 21092 (C. auris DSM 21092) [µM] | MFC, C. tropicalis DSM 11951 (C. tropicalis DSM 11951; DSM 11951, 24 h) [µM] | MIC, C. tropicalis DSM 11951 (C. tropicalis DSM 11951; DSM 11951, 24 h) [µM] | MFC, C. glabrata DSM 11226 (C. glabrata DSM 11226; DSM 11226, 24 h) [µM] | MIC, C. glabrata DSM 11226 (C. glabrata DSM 11226; DSM 11226, 24 h) [µM] | ratio of the ellipticities at 222 and 208 nm ([1]; >1 = helical aggregates) | toxicity in G. mellonella larvae at 50 μM (G. mellonella larvae) | MFC, C. albicans ATCC 90028 (C. albicans ATCC 90028) [µM] | conformation by CD in fungal membrane-like SUVs, 10 μM ([3]; peptide 10 μM) | conformation by CD in fungal membrane-like SUVs, 50 μM ([3]; peptide 50 μM) | conformation by CD in DOPC:Chol liposomes ([1]; 25 °C) | MIC, C. tropicalis DSM 11951 (C. tropicalis DSM 11951; [4]) [µM] | MIC, C. glabrata DSM 11226 (C. glabrata DSM 11226; [4]) [µM] |
| --- | --- | --- | --- | --- | --- | --- | --- | --- | --- | --- | --- | --- | --- | --- | --- | --- |
| CC[C@H](C)[C@H](NC(=O)[C@H](CCCNC(=N)N)NC(=O)[C@@H]1CCC(=O)NCCCC[C@H](NC(=O)[C@H](Cc2ccccc2)NC(=O)[C@H](Cc2c[nH]c3ccccc23)NC(=O)[C@@H]2CCCN2C(=O)[C@@H](NC(=O)[C@@H](N)Cc2ccccc2)C(C)C)C(=O)N[C@@H](CCCCN)C(=O)N[C@@H](Cc2ccccc2)C(=O)N[C@H](CC(C)C)C(=O)N1)C(=O)N[C@@H](CC(C)C)C(N)=O [compound 3] (H-FVPWFKKF[dL]ERIL-NH2; lactam 6-10; N-terminus assumed) | ~ 13% | effective in the eradication of biofilm | 50 | 50 | 50 | 50 | 50 | 50 |  |  |  |  |  |  |  |  |
| CC(C)C[C@H](NC(=O)[C@@H]1CCCCn2cc(nn2)C[C@H](NC(=O)[C@H](CCCCN)NC(=O)[C@H](CO)NC(=O)[C@H](Cc2ccccc2)NC(=O)[C@H](Cc2c[nH]c3ccccc23)NC(=O)[C@@H]2CCCN2C(=O)[C@@H](NC(=O)[C@@H](N)Cc2ccccc2)C(C)C)C(=O)N[C@H](CC(C)C)C(=O)NCC(=O)N[C@@H](CCCNC(=N)N)C(=O)N1)C(N)=O [compound 7] (H-FVPWFSK[Pra][dL]GR[Lys(N3)]L-NH2; triazole 8-12; N-terminus assumed) | ~ 23% |  | >50 | 50 | 50 | 50 | 50 | 50 |  |  |  |  |  |  |  |  |
| CC[C@H](C)[C@H](NC(=O)[C@H](CCCNC(=N)N)NC(=O)[C@@H]1CCCCNC(=O)CC[C@H](NC(=O)[C@H](Cc2ccccc2)NC(=O)[C@H](Cc2c[nH]c3ccccc23)NC(=O)[C@@H]2CCCN2C(=O)[C@@H](NC(=O)[C@@H](N)Cc2ccccc2)C(C)C)C(=O)N[C@@H](CCCCN)C(=O)N[C@@H](Cc2ccccc2)C(=O)N[C@H](CC(C)C)C(=O)N1)C(=O)N[C@@H](CC(C)C)C(N)=O [compound 15] (H-FVPWFEKF[dL]KRIL-NH2; lactam 6-10; N-terminus assumed) | ~ 48% |  | >50 | 50 | >50 | 50 | >50 | 50 | greater than 1 | greater toxicity | > 50 |  |  |  |  |  |
| CC[C@H](C)[C@H](NC(=O)[C@H](CCCNC(=N)N)NC(=O)[C@@H]1CSSC[C@H](NC(=O)[C@H](Cc2ccccc2)NC(=O)[C@H](Cc2c[nH]c3ccccc23)NC(=O)[C@@H]2CCCN2C(=O)[C@@H](NC(=O)[C@@H](N)Cc2ccccc2)C(C)C)C(=O)N[C@@H](CCCCN)C(=O)N[C@@H](Cc2ccccc2)C(=O)N[C@H](CC(C)C)C(=O)N1)C(=O)N[C@@H](CC(C)C)C(N)=O [compound 16] (H-FVPWFCKF[dL]CRIL-NH2; disulfide 6-10; N-terminus assumed) |  |  | >50 | 50 | 50 |  | 50 |  |  |  | >50 | random coil conformation; also recorded: random coil structure | α-helical molecular aggregates | random coil conformation | 25 | 25 |
